Assay results from patent US8106055B2, “Substituted amide compounds” (Gruenenthal GmbH, priority 2007, dated 2012).

Key:
[1] = molecular target: T1, human bradykinin 1 receptor (B1R) (Homo sapiens, UniProt P46663); experiment: Functional investigation on the human bradykinin 1 receptor (B1R), Ca2+ FLIPR assay in CHO K1 hB1R cells; assay type: cell-based; settings: CHO-K1, B1R antagonism human; test substance 10 μM; Ca2+ FLIPR, CHO K1 hB1R cells; read-out: B1R Ant. h [10 μM] % Inhibition
T1 construct: expressed in transfected cells; host or cells: CHO K1 cells
T1 sequence (P46663 1-353): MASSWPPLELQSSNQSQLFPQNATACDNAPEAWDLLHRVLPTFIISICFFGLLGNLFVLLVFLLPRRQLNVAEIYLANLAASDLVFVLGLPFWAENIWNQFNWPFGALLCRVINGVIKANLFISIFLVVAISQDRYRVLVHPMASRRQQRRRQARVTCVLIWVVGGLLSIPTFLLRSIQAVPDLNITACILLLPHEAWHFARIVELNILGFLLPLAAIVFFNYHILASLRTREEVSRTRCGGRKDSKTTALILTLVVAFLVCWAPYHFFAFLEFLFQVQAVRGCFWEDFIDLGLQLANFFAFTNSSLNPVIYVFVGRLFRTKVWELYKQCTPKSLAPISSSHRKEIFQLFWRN
How it was run: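 Stably transfected CHO K1 cells loaded with Fluo-4; FLIPR Ca2+ fluorescence peak (ex 488/em 540 nm). Compound added first (agonism vs Lys-Des-Arg9-bradykinin ≥50 nM human, Des-Arg9-bradykinin 10 μM rat), then after 10-20 min agonist at EC80; antagonism as % inhibition, IC50 from concentration series, n=2-3, N≥2.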

[2] = molecular target: T2, serotonin (5-HT) reuptake (Rattus norvegicus, UniProt P31652); experiment: Inhibition of serotonin (5HT) reuptake in synaptosomes from rat brain; assay type: biochemical; settings: test concentration of 10 μM; read-out: 5-HT (inhibition of reuptake of serotonin, % inhibition)
T2 construct: synaptosomes are freshly isolated from areas of the rat brain; from tissue; host or cells: rat brain synaptosomes (P2 fraction)
T2 sequence (P31652 whole entry): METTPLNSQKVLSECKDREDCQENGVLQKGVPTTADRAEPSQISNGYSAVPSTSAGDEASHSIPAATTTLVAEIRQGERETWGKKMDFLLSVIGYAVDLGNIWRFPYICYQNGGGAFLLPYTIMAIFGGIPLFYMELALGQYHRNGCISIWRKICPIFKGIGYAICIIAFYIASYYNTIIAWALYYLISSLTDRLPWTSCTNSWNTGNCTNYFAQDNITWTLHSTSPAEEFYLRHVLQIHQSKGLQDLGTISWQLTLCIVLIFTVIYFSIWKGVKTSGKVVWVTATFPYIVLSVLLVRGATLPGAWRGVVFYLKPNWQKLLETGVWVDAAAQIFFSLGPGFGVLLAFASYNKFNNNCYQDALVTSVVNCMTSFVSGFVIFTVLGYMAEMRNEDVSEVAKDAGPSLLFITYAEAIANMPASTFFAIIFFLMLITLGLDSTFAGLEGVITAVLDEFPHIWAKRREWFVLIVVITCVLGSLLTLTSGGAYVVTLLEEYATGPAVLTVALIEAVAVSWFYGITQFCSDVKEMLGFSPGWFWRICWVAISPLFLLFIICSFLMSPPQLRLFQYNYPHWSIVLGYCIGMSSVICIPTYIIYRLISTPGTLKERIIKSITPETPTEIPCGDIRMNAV
How it was run: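 Freshly isolated rat brain synaptosomes (P2 fraction) used for 5-HT reuptake. Test compound at 10 μM, activity given as % inhibition.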

Row | SMILES | inhibition at 10 µM [1] [%] | inhibition at 10 µM [2] [%]
1 | Cc1ccc(S(=O)(=O)N2CCC(OCC(=O)NCC3CCC(C(c4cccs4)N(C)C)CC3)C2)cc1 (stereo not drawn) [Example 68, N-((4-((dimethylamino)(thiophen-2-yl)methyl)cyclohexyl)methyl)-2-(1-tosylpyrrolidin-3-yloxy)acetamide] | 18 | 82
2 | COc1cc(C)c(S(=O)(=O)N2CCC(OCC(=O)NC3CCC(C(c4cccs4)N(C)C)CC3)C2)c(C)c1C (stereo not drawn) [Example 43, N-(4-((dimethylamino)(thiophen-2-yl)methyl)cyclohexyl)-2-(1-(4-methoxy-2,3,6-trimethylphenylsulfonyl)pyrrolidin-3-yloxy)acetamide] | 37 | 90
3 | COc1ccc(S(=O)(=O)N2CCCCC2CCOCC(=O)NC2CCC(C(c3cccc(F)c3)N(C)C)CC2)cc1 (stereo not drawn) [Example 62, N-(4-((dimethylamino)(3-fluorophenyl)methyl)cyclohexyl)-2-(2-(1-(4-methoxyphenylsulfonyl)piperidin-2-yl)ethoxy)acetamide] | 40 | 96
4 | CN(C)C(c1cccc(F)c1)C1CCC(CNC(=O)COCC2CCCCN2S(=O)(=O)c2ccc(Cl)c(Cl)c2)CC1 (stereo not drawn) [Example 87, 2-((1-(3,4-dichlorophenylsulfonyl)piperidin-2-yl)methoxy)-N-((4-((dimethylamino)(3-fluorophenyl)methyl)cyclohexyl)methyl)acetamide] | 57 | 94
5 | CN(C)C(c1cccs1)C1CCC(CCNC(=O)COCCN(C)S(=O)(=O)c2ccc(OC(F)(F)F)cc2)CC1 (stereo not drawn) [Example 65, N-(2-(4-((dimethylamino)(thiophen-2-yl)methyl)cyclohexyl)ethyl)-2-(2-(N-methyl-4-(trifluoromethoxy)phenylsulfonamido)ethoxy)acetamide] | 12 | 95
6 | CN(C)C(c1cccs1)C1CCC(CNC(=O)COCCN(C)S(=O)(=O)c2cccc(C(F)(F)F)c2)CC1 (stereo not drawn) [Example 92, N-((4-((dimethylamino)(thiophen-2-yl)methyl)cyclohexyl)methyl)-2-(2-(N-methyl-3-(trifluoromethyl)phenylsulfonamido)ethoxy)acetamide] | 31 | 86
7 | COc1ccc(S(=O)(=O)N2CCCCC2CCOCC(=O)NCCC2CCC(C(c3cccs3)N(C)C)CC2)cc1 (stereo not drawn) [Example 46, N-(2-(4-((dimethylamino)(thiophen-2-yl)methyl)cyclohexyl)ethyl)-2-(2-(1-(4-methoxyphenylsulfonyl)piperidin-2-yl)ethoxy)acetamide] | 86 | 96
8 | COc1cc(C)c(S(=O)(=O)N2CCC(OCC(=O)NCCC3CCC(C(c4cccs4)N(C)C)CC3)C2)c(C)c1C (stereo not drawn) [Example 74, N-(2-(4-((dimethylamino)(thiophen-2-yl)methyl)cyclohexyl)ethyl)-2-(1-(4-methoxy-2,3,6-trimethylphenylsulfonyl)pyrrolidin-3-yloxy)acetamide] | 66 | 98
9 | CN(C)C(c1ccccc1)C1CCC(CNC(=O)COC2CCCCC2N(C)S(=O)(=O)c2ccc(Cl)c(Cl)c2)CC1 (stereo not drawn) [Example 78, 2-(2-(3,4-dichloro-N-methylphenylsulfonamido)cyclohexyloxy)-N-((4-((dimethylamino)(phenyl)methyl)cyclohexyl)methyl)acetamide] | 51 | 86
10 | CN(C)C(c1ccccc1)C1CCC(NC(=O)COC2CCCCC2N(C)S(=O)(=O)c2ccc(Cl)c(Cl)c2)CC1 (stereo not drawn) [Example 39, 2-(2-(3,4-dichloro-N-methylphenylsulfonamido)cyclohexyloxy)-N-(4-((dimethylamino)(phenyl)methyl)cyclohexyl)acetamide] | 89 | 91
11 | CN(C)C(c1cccs1)C1CCC(CNC(=O)COCCN(C)S(=O)(=O)c2ccc(Cl)cc2)CC1 (stereo not drawn) [Example 55, 2-(2-(4-chloro-N-methylphenylsulfonamido)ethoxy)-N-((4-((dimethylamino)(thiophen-2-yl)methyl)cyclohexyl)methyl)acetamide] | 11 | 92
12 | Cc1ccc(S(=O)(=O)N(C)CCOCC(=O)NCC2CCC(C(c3cccs3)N(C)C)CC2)cc1 (stereo not drawn) [Example 4, N-((4-((dimethylamino)(thiophen-2-yl)methyl)cyclohexyl)methyl)-2-(2-(N,4-dimethylphenylsulfonamido)ethoxy)acetamide] | 2 | 92
